Experimental data published in patent publication US9359196B2, “Antiproliferative compositions comprising curcumin analogs and methods of producing and using same” (The Board of Regents of the University of Oklahoma, priority 2009, dated 2016).
Read-outs that look alike come from different tables or passages of the source.

Key:
[1] = test system: lung adenocarcinoma cell line H441; assay: Cell proliferation (hexosaminidase assay) in lung adenocarcinoma H441 cells, Example 1; assay type: cell-based, human
Method: Cell Proliferation Studies: In order to assess the anti-proliferative activity of the synthesized compounds, an in vitro cell culture system of lung adenocarcinoma cell line H441 was used. The cell detachment and anti-proliferative activity was measured as a decrease in hexosaminidase enzyme activity associated with remainder of the adhered cells. [Landegren, 1984] […] The concentration versus cell proliferation plots were analyzed by an exponential fit (Table 1). The results were compared with the anti-proliferative activity of compound 1.
Cell Culture and drug treatment: Human lung adenocarcinoma cell line NCI-H441 (ATCC Number: HTB-174) was obtained from the American Type Culture Collection (Manassas, Va.). H441 cells were maintained at 37° C. with 5% CO2 in McCoy's 5A Medium (Invitrogen, Carlsbad, Calif.) supplemented with 5% heat-inactivated fetal bovine serum (FBS). All media contained gentamicin at 50 μg/ml (GIBCO Laboratories, Grand Island, N.Y.). Other cells lines (PANC-1, MiaPaCa-2 and PC-3) were also similarly maintained, except that the cell culture medium was RPMI 1640 instead of McCoy's.
To evaluate the anti-proliferative activity of synthesized bis(2-fluorobenzylidene)-4-piperidone and its derivatives, the cells were seeded in 96-well flat-bottom tissue culture plates at a density of 10×10^3 cells per well. The cells were allowed to attach and grow overnight. The test compounds were solubilized in dimethyl sulfoxide (DMSO), filtered through 0.2 μm nylon filter and added to cells at 1, 10, 25 and 100 μM concentrations in culture medium supplemented with 5% FBS. The DMSO concentration was maintained at 0.1% per well. Control wells received equivalent volume of DMSO without any test compounds. The cells were allowed to remain in the treatment medium for 24, 48 and 72 hours.
Cell Proliferation: The total number of cells after the treatment period was estimated by the hexosaminidase assay. [Landegren, 1984] Briefly, the medium was removed and hexosaminidase substrate solution in citrate buffer pH 5 (7.5 mM), […] (Calbiochem, San Diego, Calif.) was added at 60 μl per well. The plate was incubated at 37° C. in 100% humidity for 30 minutes, before stopping the reaction with 90 μl of 50 mM glycine containing 5 mM of EDTA (pH 10.4). The absorbance was measured at 405 nm. The experiments were conducted in triplicate, and repeated at least twice. The data were analyzed as percent of control, where the control wells were treated with equivalent amounts of DMSO alone, and the analyzed data was presented as average±standard error of mean. The differences among mean values were deemed significant at p<0.05.
For IC50 calculations, a plot between the drug concentration and hexosaminidase activity was generated and the data was fitted either linearly or exponentially. The best fit was used for further processing of data.

[2] = Homo sapiens, NCI-H441, 24 h of treatment, 1-100 μM tested, fitted plot, read-out: IC50 value
[3] = Homo sapiens, NCI-H441, 24 h of treatment, read-out: IC50 (grouping relative to compound 1)
[4] = 24 h of treatment, 1-100 μM tested, fitted plot, read-out: IC50 value

SMILES	anti-proliferative activity in words, relative to the comparator named [1]	IC50 [1, 2] [µM]	IC50 [1, 3] [µM]	IC50 [1, 4] [µM]	melting point [°C]
O=C1C(=Cc2ccccc2F)CN(C(=O)c2ccccc2C(=O)O)CC1=Cc1ccccc1F [Compound 16, 2-[3,5-Bis-(2-fluorobenzylidene)-4-oxo-piperidine-1-carbonyl]-benzoic acid]	very potent analog	56	> 50		
O=C1C(=Cc2ccc(Cl)cc2)CNCC1=Cc1ccc(Cl)cc1 [Compound 8, 3,5-Bis(4-chlorobenzylidene)-4-piperidone]	no change in the anti-proliferative activity of 8 compared to that of 7	87	> 50		
O=C1C(=Cc2ccc(F)cc2)CNCC1=Cc1ccc(F)cc1 [Compound 7, 3,5-Bis(4-fluorobenzylidene)-4-piperidone]		45.7			
O=C(O)CCC(=O)N1CC(=Cc2ccccc2F)C(=O)C(=Cc2ccccc2F)C1 [Compound 12]				69	
OC1C(=Cc2ccccc2F)CNCC1=Cc1ccccc1F (stereo not shown) [Compound 10, 3,5-Bis(2-fluorobenzylidene)-4-hydroxy-piperidine]	significantly less anti-proliferative activity as compared to compound 1	124	> 50		
CCCCCCCCCCCCCCCCNC(=O)CCC(=O)N1CC(=Cc2ccccc2F)C(=O)C(=Cc2ccccc2F)C1 [Compound 24, 4-[3,5-Bis-(2-fluorobenzylidene)-4-oxo-piperidin-1-yl]-N-hexadecyl-4-oxo-butyramide]	loss of anti-proliferative activity	64	> 50		
O=C(O)CCCC(=O)N1CC(=Cc2ccccc2F)C(=O)C(=Cc2ccccc2F)C1 [Compound 15, 5-[3,5-Bis-(2-fluorobenzylidene)-4-oxo-piperidin-1-yl]-5-oxo-pentanoic acid]		60	> 50		167 to 168
O=C1C(=Cc2ccccc2)CNCC1=Cc1ccccc1 [Compound 2, 3,5-Bis(benzylidene)-4-piperidone]		12	< 30		
CN(C)c1ccc(C=C2CNCC(=Cc3ccc(N(C)C)cc3)C2=O)cc1 [Compound 9, 3,5-Bis[4-(N,N-dimethylaminoenzylidene)]-4-piperidone]				101	
O=CN1CC(=Cc2ccccc2F)C(=O)C(=Cc2ccccc2F)C1 [Compound 18, N-Formyl-3,5-bis(2-fluorobenzylidene)-4-piperidone]	performed slightly better than compound 1	49			
O=C1C(=Cc2ccccc2Br)CNCC1=Cc1ccccc1Br [Compound 4, 3,5-Bis(2-bromobenzylidene)-4-piperidone]		6	< 30		
O=C1C(=Cc2cccc(Cl)c2)CNCC1=Cc1cccc(Cl)c1 [Compound 6, 3,5-Bis(3-chlorobenzylidene)-4-piperidone]	little change in IC50 as compared to that of compound 1	50			
CCCCCCCCCCCCCCCCC=CC(CC(=O)O)C(=O)N1CC(=Cc2ccccc2F)C(=O)C(=Cc2ccccc2F)C1 (stereo not shown) [Compound 28, 3-[3,5-Bis-(2-fluorobenzylidene)-4-oxo-piperidine-1-carbonyl]-heneicos-4-enoic acid]	total loss of activity	84	> 50		
CCCCCCCCCCC=CC(CC(=O)O)C(=O)N1CC(=Cc2ccccc2F)C(=O)C(=Cc2ccccc2F)C1 (stereo not shown) [Compound 26, 3-[3,5-Bis-(2-fluorobenzylidene)-4-oxo-piperidine-1-carbonyl]-pentadec-4-enoic acid]	acceptable anti-proliferative activity	58	> 50		
CC(=O)N1CC(=Cc2ccccc2F)C(=O)C(=Cc2ccccc2F)C1 [Compound 19, N-Acetyl-3,5-bis(2-fluorobenzylidene)-4-piperidone]	performed slightly better than compound 1	54	> 50		
CCCCCCCCCCCCC=CC(CC(=O)O)C(=O)N1CC(=Cc2ccccc2F)C(=O)C(=Cc2ccccc2F)C1 (stereo not shown) [Compound 27, 3-[3,5-Bis-(2-fluorobenzylidene)-4-oxo-piperidine-1-carbonyl]-heptadec-4-enoic acid]	acceptable anti-proliferative activity	47			
O=C1C(Cc2ccccc2F)CNCC1Cc1ccccc1F (stereo not shown) [Compound 11, 3,5-Bis(2-fluorobenzyl)-4-piperidone]	significantly less anti-proliferative activity as compared to compound 1	130	> 50		
O=C(CN1CC(=Cc2ccccc2F)C(=O)C(=Cc2ccccc2F)C1)NCc1ccc(F)cc1 [Compound 23, 2-[3,5-Bis(2-fluorobenzylidene-4-piperidone-1-yl)-N-(4-fluorobenzyl)acetamide]]				46	
O=C1C(=Cc2ccccc2F)CN(C(=O)C2CCCCC2C(=O)O)CC1=Cc1ccccc1F (stereo not shown) [Compound 17, 2-[3,5-Bis-(2-fluorobenzylidene)-4-oxo-piperidine-1-carbonyl]-cyclohexanecarboxylic acid]		55	> 50		96 to 98
O=C(O)C=CC(=O)N1CC(=Cc2ccccc2F)C(=O)C(=Cc2ccccc2F)C1 [Compound 13, 4-[3,5-Bis-(2-fluorobenzylidene)-4-oxo-piperidin-1-yl]-4-oxo-2-butenoic acid]	significant enhancement in potency	29	< 30		
O=C(CCC(=O)N1CC(=Cc2ccccc2F)C(=O)C(=Cc2ccccc2F)C1)N[C@H]1C(O)O[C@H](CO)[C@@H](O)[C@@H]1O (stereo partly shown) [Compound 22, 4-Oxo-4-[3,5-bis(2-fluorobenzylidene-4-piperidonylcarbonyl)-2-glucosepropanamide]]	reduced anti-proliferative activity			79	
Cc1ccc(S(=O)(=O)N2CC(=Cc3ccccc3F)C(=O)C(=Cc3ccccc3F)C2)cc1 [Compound 20, N-(4-Methylbenzenesulfonyl)-3,5-bis(2-fluorobenzylidene)-4-piperidone]		50	> 50		162 to 163
O=C1C(=Cc2ccccc2[N+](=O)[O-])CNCC1=Cc1ccccc1[N+](=O)[O-] [Compound 5, 3,5-Bis(2-nitrobenzylidene)-4-piperidone]	the activity remained more or less the same	93	> 50		
O=C(O)COCC(=O)N1CC(=Cc2ccccc2F)C(=O)C(=Cc2ccccc2F)C1 [Compound 14, 2-[3,5-Bis-(2-fluorobenzylidene)-4-oxo-piperidin-1-yl]-2-oxo-ethoxyacetic acid]	less potent as compared to compound 15	310	> 50		
O=C1C(=Cc2ccccc2Cl)CNCC1=Cc1ccccc1Cl [Compound 3, 3,5-Bis(2-chlorobenzylidene)-4-piperidone]	more anti-proliferative than the 2-fluoro substituted compound 1	5	< 30		
